Measurements taken from patent publication US20150297619A1, “METHODS AND COMPOSITIONS FOR PRESERVING THE MUCOSAL BARRIER” (priority 2014, published 2015).

Columns and labels:
[1] = tested on: ischemic small intestine segments (jejunum to ileum); test: Ex vivo intestinal ischemia: transmural fluorescein transport across wall of flushed intestinal segments; parameters: species or system rat
Excerpt: Intestinal Ischemia—Since intestinal properties are non-homogenous, the transmural permeability was investigated over the entire length of the jejunum and ileum. Due to physical constraints of the small intestine anatomy, it is not feasible to simultaneously analyze permeability from multiple segments in vivo. Therefore, an ex vivo approach similar to previously published studies was designed to measure permeability along the length of the small intestine.
A midline incision was made to expose the intestine in anesthetized rats. The proximal end of the jejunum (approximately 5 cm distal from the ligament of Treitz) was cannulated with a female luer to barb tube connector (⅛″ inner diameter). The intestine was removed and placed in saline immediately before euthanasia. In order to focus the analysis on permeability of the intestinal wall during ischemia in the absence of luminal contents (including the digestive proteases or cytotoxic factors from food), the lumen of the intestine was flushed with 40 ml saline using pulsatile pressure. Visual examination confirmed all solid contents were removed. Next, the intestine was cut into eight equal length segments (˜8 cm) sequentially ordered from the proximal jejunum (position 1) to the distal ileum (position 8). Both ends of each segment were cannulated with Female Luer to Barb tube connectors (thus allowing entry and exit points from the intestinal lumen to be sealed completely), secured with 4-0 suture, and the exterior portion of one adaptor on each segment sealed with clay.
To determine the transmural permeability of the intestine, all 8 segments from each animal were filled with a low molecular weight tracer as a sensitive measure of early barrier breakdown prior to the initiation of ischemia, fluorescein (332 Da M.W., 20 μg/ml from 5 mg/ml stock in ethanol; 0.308 osm/L; Sigma-Aldrich, St. Louis, Mo.) mixed with saline, glucose (100 mg/ml in saline; 0.550 moles/L; 0.863 osm/L, Sigma-Aldrich), the non-metabolizing glucose analog mannitol (100 mg/ml in saline; 0.550 moles/L; 0.863 osm/L), the serine protease inhibitor tranexamic acid (31 mg/ml in saline; 0.200 moles/L; 0.508 osm/L, Sigma-Aldrich), the MMP inhibitor doxycycline hyclate (1 mg/ml in saline; 1.955×10^−3 moles/L; 0.310 osm/L, Sigma-Aldrich), or the MMP inhibitor GM 6001 [38] (1 μg/ml in saline from 1 mg/ml stock in DMSO; 2.57×10^−6 moles/L; 0.308 osm/L, Millipore, Billerica, Md.). […]
Sealed segments were rinsed in saline, individually placed in 15 ml conical tubes containing 6 ml saline, and incubated at 37° C. for 2 hours to simulate ischemic conditions. […] Plates were read in a plate reader (FilterMax F-5 Multi-mode, Molecular Devices, Sunnyvale, Calif.) for concentration of fluorescein (excitation 494/emission 521) to measure diffusion across the wall of the intestine.
Permeability Analysis—To determine the fluorescein transport across the ischemic intestinal wall, the fluorescence at time 0 was subtracted from fluorescence values at later time points to correct for background, and fluorescence values were corrected to account for the volume reduction due to sampling during the experiment. The RFU measurements were converted to equivalent moles by using the linear relationship between concentration and fluorescein fluorescence (not shown, R^2=0.999). The transport of fluorescein across the wall (measured in moles, per time) was computed as the change in fluorescence over a 30 min interval divided by 30 min.

intestinal villi = test: Morphological analysis of intestinal villi after ex vivo ischemia (Van Gieson/hematoxylin); parameters: species or system rat; conditions: for intestinal villi structure: jejunum and ileum after 2 hrs ex vivo ischemia
Method: After the two-hour ischemic incubation, intestinal pieces from segments 2 (jejunum) and 7 (ileum) were embedded in O.C.T. (Tissue Tek, Torrance, Calif.) and snap frozen in t-methyl butane in liquid nitrogen. Intestine samples from segments 2 and 7 (for protease analysis) and segment 7 (for immunoblots) were snap frozen and stored for subsequent homogenization. Morphological Analysis and TUNEL Labeling—Intestinal segments frozen in O.C.T. were cut into 5 μm sections. Sections were fixed using ice-cold methanol (8 min at −20° C.) and immediately washed four times in distilled water. Nuclei were stained by incubating sections in freshly mixed Weigert's Iron Hematoxylin A and B (Electron Microscopy Science, Hatfield, Pa.) (10 min) followed by rinsing thoroughly with water. Collagen fibers were labeled by incubating (2 min) in Van Gieson's Solution (Electron Microscopy Science). Prior to mounting, all slides were dehydrated (70, 95, 100% ethanol) and cleaned with xylene. After air-drying overnight, sections were mounted using Hard Set Mounting Media (Vector Laboratories, Burlingame, Calif.). Digital images were captured with a 20× objective (numerical aperture 0.5) and digitally montaged together after background subtraction. The separation of the mucosal epithelial layer was quantified for groups that had intact villi following the two hour ischemic period. Images were blinded and the distance between the mucosal epithelial layer and the lamina propria was measured over five lengths across a minimum of 6 villi.

Structure (SMILES)	fluorescein transport across the wall of the intestine ([1]; ex vivo, treatment in lumen, two-hour ischemic period)	intestinal villi structure (intestinal villi)	separation between the lamina propria and the mucosal epithelial layer (intestinal villi; jejunum, after 2 hrs ex vivo ischemia)	fluorescein transport rates, 30-60 min and 60-90 min periods ([1]; ex vivo ischemia, inhibitor in lumen without glucose, vs saline)
O=C[C@H](O)[C@@H](O)[C@H](O)[C@H](O)CO [Glucose, glucose]	drastically reduced	attenuated	still observed	
NC[C@H]1CC[C@H](C(=O)O)CC1 [tranexamic acid]		did not prevent the villi destruction		significantly decreased compared to the saline treated intestines
